Experimental data as given in patent publication US20260138959A1, “QUINAZOLINE DERIVATIVE COMPOUND AND USE THEREOF” (VORONOI INC., priority 2021, published 2026).

Legend:
human PDGFR-β(wt) = biological target: T1, human PDGFR-β(wt) (Homo sapiens, UniProt P09619); assay: Enzyme inhibitory activity, ADP-Glo kinase assay, PDGFR-β(wt); type: biochemical; settings: read-out: PDGFR-β (IC50 class)
T1 construct: purchased Signalchem P13-11G
How it was run: (§1)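 Purified human kinases incubated with ATP and substrate 1–2 h at 25 °C in 40 mM Tris-HCl pH 7.4, 20 mM MgCl2, BSA, DTT, compound over 12 concentrations (10–0.00005645 μM final). ADP formed quantified by ADP-Glo luminescence; IC50 from inhibition versus DMSO control, reported in bins A–D.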

various kinases = assay: Inhibitory activity against various kinases, DiscoverX scanMAX Kinase panel, % control at 1 μM; type: binding
Procedure: The activities of the compounds according to the present disclosure on various enzymes were evaluated. Specifically, it was commissioned DiscoverX to measure enzyme selectivity for the compounds of Examples 3, 9, and 83 above, and the experiment was conducted using a panel for scanMAX™ Kinase analysis. Herein, a solution prepared by dissolving in DMSO at a concentration of 1 μM was used as the drug treated with the enzyme, and the control percentage (% control) was determined by the method of Equation 1 below, and the results are shown in Table 8 below.
Herein, when the calculated percentage value for each enzyme was less than 35%, it was determined to have inhibitory activity for the enzyme. Accordingly, among the series of enzymes tested, the enzymes showing the inhibitory activities of the compounds of the present disclosure are summarized and shown in Table 8 below along with the control percentages thereof. (©): less than 10%; ◯: 10% or more to less than 35%).

c-KIT D814Y = assay: Proliferation inhibitory activity on Ba/F3 cell (CellTiter-Glo, 72 hours), c-KIT D814Y; type: cell-based; settings: Mus musculus, BaF3, c-KIT D814Y cells, read-out: Cell (nM) c-KIT D814Y (GI50 class)
Procedure: Ba/F3-TEL-PDGFRα(WT), Ba/F3-TEL-PDGFβ(WT), Ba/F3-c-KIT(D816V) (Kyinno, #KC-0138), c-KIT V560G/D816V, c-KIT D814Y were seeded at 3×10^3/100 μl/well in a clear bottom white 96-well plate. A culture solution containing compounds of 12 concentrations (0.00001-2 mM) serially diluted in 3 folds and the DMSO control group was added at 0.5 μl/well each to a final concentration of 0.00005-10 μM, and then incubated in a CO2 incubator at 37° C. for 72 hours. After 72 hours, the plate treated with the compound was taken out, CellTiter-Glo® Assay (Promega) solution was treated with 100 μl/well, followed by mixing well. After mixing well for about 10 minutes at room temperature, […] was measured using a microplate reader. The data were presented as percentages in proportion to treated cells based on the vehicle, GI50 (nM) values were calculated using GraphPad Prism 8.3.0 (GraphPad software Inc., San Diego).
The inhibitory activities of Ba/F3 expressing PDGFR-α, PDGFR-β, c-KIT(D816V), c-KIT V560G/D816V, and c-KIT D814Y measured as described above were measured and shown in Table 7 below (A: GI50≤200 nM; B: 200 nM<GI50≤500 nM; C: GI50>500 nM).

c-KIT D816V [1] = biological target: T2, c-KIT D816V (Homo sapiens, UniProt P10721, D816V); assay: Enzyme inhibitory activity, ADP-Glo kinase assay, c-KIT(D816V); type: biochemical; design: purchased Signalchem C06-12LG; settings: read-out: c-KIT (D816V) (IC50 class)
T2 sequence (P10721 26-976 D816V): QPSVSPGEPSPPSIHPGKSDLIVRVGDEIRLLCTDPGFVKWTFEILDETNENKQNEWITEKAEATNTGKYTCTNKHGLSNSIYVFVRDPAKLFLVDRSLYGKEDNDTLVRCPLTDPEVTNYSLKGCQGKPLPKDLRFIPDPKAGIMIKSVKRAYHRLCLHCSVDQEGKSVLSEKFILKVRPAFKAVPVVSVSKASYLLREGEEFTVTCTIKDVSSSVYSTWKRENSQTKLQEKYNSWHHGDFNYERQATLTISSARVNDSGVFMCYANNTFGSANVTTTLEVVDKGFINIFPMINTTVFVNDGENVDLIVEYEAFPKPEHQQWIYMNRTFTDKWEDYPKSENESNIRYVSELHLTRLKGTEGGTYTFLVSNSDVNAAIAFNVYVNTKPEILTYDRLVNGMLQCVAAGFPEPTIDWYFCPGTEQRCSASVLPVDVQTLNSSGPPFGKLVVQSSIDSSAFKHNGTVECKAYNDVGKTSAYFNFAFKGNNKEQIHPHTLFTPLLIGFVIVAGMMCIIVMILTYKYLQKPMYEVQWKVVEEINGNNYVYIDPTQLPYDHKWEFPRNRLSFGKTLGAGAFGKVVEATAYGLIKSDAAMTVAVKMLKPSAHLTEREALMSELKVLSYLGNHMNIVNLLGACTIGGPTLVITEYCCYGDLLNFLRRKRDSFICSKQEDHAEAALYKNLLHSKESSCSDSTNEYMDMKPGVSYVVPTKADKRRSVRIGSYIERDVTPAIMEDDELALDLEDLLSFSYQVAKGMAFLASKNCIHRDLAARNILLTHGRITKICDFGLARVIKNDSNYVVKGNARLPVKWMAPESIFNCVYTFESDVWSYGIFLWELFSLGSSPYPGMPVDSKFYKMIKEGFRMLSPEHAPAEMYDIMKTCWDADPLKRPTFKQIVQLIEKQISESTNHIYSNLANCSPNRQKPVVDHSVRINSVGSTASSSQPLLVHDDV
Procedure: (§2) In order to evaluate the inhibitory activity of the compounds synthesized according to the above examples on PDGFR-α(wt), PDGFR-β(wt), c-KIT(wt), and c-KIT(D816V) kinases, the following method was performed. The compounds of examples were reacted with purified human PDGFR-α(wt) (Signalchem #P12-18G) enzyme, human PDGFR-β(wt) (Signalchem #P13-11G) enzyme, human c-KIT(wt) (Signalchem #K06-11BG) enzyme, human c-KIT(D816V) (Signalchem #C06-12LG) enzyme, and the enzyme inhibitory abilities were evaluated by the following method.
(§3) The reaction buffer was used as a composition of 40 mM Tris-HCl pH7.4, 20 mM MgCl2, 0.5 mg/ml BSA, 50 μM DTT, and the reactions of all the tests were carried out on the reaction buffer. The compound was diluted in 12 steps using a serial dilution method from a 10 mM DMSO stock, and the enzyme activity was measured at a final compound concentration of 10˜0.00005645 μM. During the test, the enzyme activity was confirmed using in vitro ADP-Glo™ kinase assay (Promega) after reacting with the proper concentration of human PDGFR-α(wt) enzyme, human PDGFR-β(wt), human c-KIT(wt) enzyme, and human c-KIT(D816V) enzyme with purified ATP and enzyme substrate at 25° C. for 1˜2 hours. At a ratio of 2:2:1, an enzyme-active reaction solution, an ADP-Glo reaction solution, and an enzyme-active detection solution were reacted to measure the inhibition of the enzyme's activity with luminoscence. Based on the […] of the enzyme activity of the solvent control that was not treated with the compound, the degree of enzyme activity inhibition was calculated according to the treatment concentration of each compound, and the concentration of each compound that inhibits 50% of enzyme activity was determined as IC50 (nM) value and the value was obtained by using GraphPad Prism 8.3.0 (GraphPad software Inc., San Diego) software. (A: IC50≤50 nM; B: 50 nM<IC50≤100 nM; C: 100 nM<IC50≤500 nM; D: IC50>500 nM).

c-KIT V560G/D816V = assay: Proliferation inhibitory activity on Ba/F3 cell (CellTiter-Glo, 72 hours), c-KIT V560G/D816V; type: cell-based; settings: Mus musculus, BaF3, c-KIT V560G/D816V cells, read-out: Cell (nM) c-KIT V560G/D816V (GI50 class)
How it was run: (§4)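 Read-out: CellTiter-Glo after 72 h at 37 °C compound exposure, expressed as percent of vehicle-treated cells, GI50 calculated. Engineered Ba/F3 cells (3×10^3/well) received twelve 3-fold serial dilutions, final 0.00005–10 μM.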

Ba/F3-c-KIT(D816V) = assay: Proliferation inhibitory activity on Ba/F3 cell (CellTiter-Glo, 72 hours), c-KIT(D816V); type: cell-based; settings: Mus musculus, BaF3, read-out: Ba/F3 (nM) c-KIT (D816V) (GI50 class)
How it was run: as §4

human PDGFR-α(wt) = biological target: T3, human PDGFR-α(wt) (Homo sapiens, UniProt P16234); assay: Enzyme inhibitory activity, ADP-Glo kinase assay, PDGFR-α(wt); type: biochemical; settings: read-out: PDGFR-α (IC50 class)
T3 construct: purchased Signalchem P12-18G
T3 sequence (P16234 24-1089): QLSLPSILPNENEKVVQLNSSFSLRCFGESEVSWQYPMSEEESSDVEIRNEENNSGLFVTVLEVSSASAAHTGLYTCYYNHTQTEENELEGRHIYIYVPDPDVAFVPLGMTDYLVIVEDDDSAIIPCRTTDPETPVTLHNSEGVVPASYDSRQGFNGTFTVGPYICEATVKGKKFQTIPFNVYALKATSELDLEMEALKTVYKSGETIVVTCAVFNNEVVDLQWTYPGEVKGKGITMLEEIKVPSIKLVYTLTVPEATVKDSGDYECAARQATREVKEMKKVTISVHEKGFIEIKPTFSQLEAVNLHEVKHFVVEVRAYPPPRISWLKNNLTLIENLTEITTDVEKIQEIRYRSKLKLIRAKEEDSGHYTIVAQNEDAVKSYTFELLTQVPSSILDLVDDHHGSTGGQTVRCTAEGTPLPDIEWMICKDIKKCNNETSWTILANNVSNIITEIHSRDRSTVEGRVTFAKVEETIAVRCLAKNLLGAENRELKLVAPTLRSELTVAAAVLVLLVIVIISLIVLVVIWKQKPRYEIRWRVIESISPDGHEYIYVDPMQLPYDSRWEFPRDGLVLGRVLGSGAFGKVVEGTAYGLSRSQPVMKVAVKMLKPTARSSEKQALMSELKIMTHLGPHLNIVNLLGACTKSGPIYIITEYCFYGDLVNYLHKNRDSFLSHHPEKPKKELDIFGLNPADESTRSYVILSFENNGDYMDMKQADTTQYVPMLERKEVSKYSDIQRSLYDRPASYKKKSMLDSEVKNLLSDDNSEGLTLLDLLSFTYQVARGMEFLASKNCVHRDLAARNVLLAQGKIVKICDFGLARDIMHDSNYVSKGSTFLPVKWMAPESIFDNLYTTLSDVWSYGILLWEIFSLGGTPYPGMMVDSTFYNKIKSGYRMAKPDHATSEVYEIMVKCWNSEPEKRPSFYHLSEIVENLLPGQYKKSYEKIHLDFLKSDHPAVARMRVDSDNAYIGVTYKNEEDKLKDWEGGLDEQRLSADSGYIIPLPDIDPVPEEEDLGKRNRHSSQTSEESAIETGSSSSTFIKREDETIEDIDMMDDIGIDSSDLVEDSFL
How it was run: as §1

Ba/F3-TEL-PDGFβ(WT) = assay: Proliferation inhibitory activity on Ba/F3 cell (CellTiter-Glo, 72 hours), PDGFR-β; type: cell-based; settings: Mus musculus, BaF3, read-out: Ba/F3 (nM) Tel-PDGFRβ (GI50 class)
How it was run: as §4

Ba/F3-TEL-PDGFRα(WT) = assay: Proliferation inhibitory activity on Ba/F3 cell (CellTiter-Glo, 72 hours), PDGFR-α; type: cell-based; settings: Mus musculus, BaF3, read-out: Ba/F3 (nM) Tel-PDGFRα (GI50 class)
How it was run: as §4

human c-KIT(wt) = biological target: T4, human c-KIT(wt) (Homo sapiens, UniProt P10721); assay: Enzyme inhibitory activity, ADP-Glo kinase assay, c-KIT(wt); type: biochemical; settings: read-out: c-KIT (WT) (IC50 class)
T4 construct: purchased Signalchem K06-11BG
T4 sequence (P10721 26-976): as the sequence (P10721 26-976 D816V) above, with V791D counted along it
Procedure: as §2, §3

c-KIT D816V [2] = biological target: T2, c-KIT D816V; settings: background art; cited from earlier work

T1 sequence (P09619 33-1106): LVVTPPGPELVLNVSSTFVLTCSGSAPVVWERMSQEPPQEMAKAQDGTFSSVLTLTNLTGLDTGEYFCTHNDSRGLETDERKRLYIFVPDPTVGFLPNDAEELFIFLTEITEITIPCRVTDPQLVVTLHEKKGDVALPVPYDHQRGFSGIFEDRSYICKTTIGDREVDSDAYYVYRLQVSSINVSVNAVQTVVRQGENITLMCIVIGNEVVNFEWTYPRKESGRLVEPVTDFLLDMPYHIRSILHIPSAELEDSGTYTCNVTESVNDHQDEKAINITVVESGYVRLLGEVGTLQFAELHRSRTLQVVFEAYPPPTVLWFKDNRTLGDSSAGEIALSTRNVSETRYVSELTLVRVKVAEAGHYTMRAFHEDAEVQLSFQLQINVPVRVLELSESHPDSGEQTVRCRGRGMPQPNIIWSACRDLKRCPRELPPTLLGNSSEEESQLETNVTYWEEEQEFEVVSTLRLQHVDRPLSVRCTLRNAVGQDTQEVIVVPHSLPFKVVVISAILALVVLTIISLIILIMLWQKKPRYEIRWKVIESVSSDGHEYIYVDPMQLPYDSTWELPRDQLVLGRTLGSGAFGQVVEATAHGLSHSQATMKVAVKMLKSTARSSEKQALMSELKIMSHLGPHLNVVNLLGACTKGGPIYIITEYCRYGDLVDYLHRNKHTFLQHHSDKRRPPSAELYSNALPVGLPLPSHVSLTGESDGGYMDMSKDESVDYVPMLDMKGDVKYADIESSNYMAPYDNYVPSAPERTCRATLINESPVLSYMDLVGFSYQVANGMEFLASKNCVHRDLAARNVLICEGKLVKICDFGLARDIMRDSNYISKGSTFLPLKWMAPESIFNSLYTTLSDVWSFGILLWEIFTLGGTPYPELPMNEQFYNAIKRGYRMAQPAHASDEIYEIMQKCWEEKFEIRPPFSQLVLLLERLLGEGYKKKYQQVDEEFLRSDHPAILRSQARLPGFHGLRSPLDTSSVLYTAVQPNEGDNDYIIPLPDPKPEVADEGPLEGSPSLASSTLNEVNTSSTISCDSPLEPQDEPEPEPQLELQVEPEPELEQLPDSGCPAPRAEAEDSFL

Row | IC50 (human PDGFR-β(wt)) [nM] | control percentage (% control), KIT (various kinases) | control percentage (% control), KIT (A829P) (various kinases) | control percentage (% control), KIT (D816H) (various kinases) | control percentage (% control), KIT (D816V) (various kinases) | control percentage (% control), KIT (L576P) (various kinases) | control percentage (% control), KIT (V559D) (various kinases) | GI50 (c-KIT D814Y) [nM] | IC50 (c-KIT D816V [1]) [nM] | GI50 (c-KIT V560G/D816V) [nM] | GI50 (Ba/F3-c-KIT(D816V)) [nM] | IC50 (human PDGFR-α(wt)) [nM] | GI50 (Ba/F3-TEL-PDGFβ(WT)) [nM] | GI50 (Ba/F3-TEL-PDGFRα(WT)) [nM] | IC50 (human c-KIT(wt)) [nM] | SMILES | further results
1 | ≤ 50 | ⊚ | ⊚ | ⊚ | ⊚ | ⊚ | ⊚ | ≤ 200 | ≤ 50 | ≤ 200 | ≤ 200 | ≤ 50 | ≤ 200 | ≤ 200 | ≤ 50 | COc1cc2c(-c3ccc(NC(=O)Cc4ccc(C(F)(F)F)cc4)cc3)ncnc2cc1OCCN1CCN(C)CC1 [Example 3, N-(4-(6-methoxy-7-(2-(4-methylpiperazin-1-yl)ethoxy)quinazolin-4-yl)phenyl)-2-(4-(trifluoromethyl)phenyl)acetamide] | control percentage (% control), KIT (V559D, T670I) (various kinases; KIT (V559D, T670I)): ◯ (◯: 10% or more to less than 35%); control percentage (% control), KIT (V559D, V654A) (various kinases; KIT (V559D, V654A)): ⊚; control percentage (% control), KIT-autoinhibited (various kinases; KIT-autoinhibited): ◯ (◯: 10% or more to less than 35%); control percentage (% control), PDGFRA (various kinases; PDGFRA): ⊚; control percentage (% control), PDGFRB (various kinases; PDGFRB): ⊚
2 | ≤ 50 | ⊚ | ⊚ | ⊚ | ⊚ | ◯ (◯: 10% or more to less than 35%) | ◯ (◯: 10% or more to less than 35%) | ≤ 200 | ≤ 50 | ≤ 200 | ≤ 200 | ≤ 50 | ≤ 200 | ≤ 200 | ≤ 50 | COc1cc2c(-c3ccc(NC(=O)Cc4ccc(C(F)(F)F)cc4)cc3)ncnc2cc1OCCCN1CCN(C)CC1 [Example 9, N-(4-(6-methoxy-7-(3-(4-methylpiperazin-1-yl)propoxy)quinazolin-4-yl)phenyl)-2-(4-(trifluoromethyl)phenyl)acetamide] | 
3 |  |  |  |  |  |  |  |  |  |  |  |  |  |  |  | Cc1ccc(NC(=O)c2ccc(CN3CCN(C)CC3)cc2)cc1Nc1nccc(-c2cccnc2)n1 [imatinib] | effect of inhibiting c-KIT D816V (c-KIT D816V [2]): no effect
